Data from the supplement of paper PMC10307832.

Columns and labels:
Experiment in all cases: relative viability (nuclei count vs DMSO), 5 days (fraction); higher = more cells survive
NCI-H2023 = system: NCI-H2023
Outline: (§1)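 After 5 days of treatment, lung cancer cells in 1536-well plates were fixed and stained in a single step (final 0.05% Triton X-100, 1% formaldehyde, 1 ug/ml Hoechst) and their nuclei counted on 4× images. Treatment had been applied by pin tool the day after seeding as one drug alone or as a fixed anchor-drug dose with five library-drug doses (not always all listed) in √10 steps. Relative viability is the nuclei count of treated wells divided by that of vehicle wells, and values are medians of duplicate plates.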

201T = system: 201T
Outline: as §1

NCI-H650 = system: NCI-H650
Outline: as §1

HCC-78 = system: HCC-78
Outline: as §1

HCC-15 = system: HCC-15
Outline: as §1

ChaGo-K-1 = system: ChaGo-K-1
Outline: as §1

NCI-H1734 = system: NCI-H1734
Outline: as §1

SW 1573 = system: SW 1573
Outline: as §1

NCI-H460 = system: NCI-H460
Outline: as §1

NCI-H1993 = system: NCI-H1993
Outline: as §1

NCI-H441 = system: NCI-H441
Outline: as §1

O=c1[nH]c2ccccc2n1C1CCN(CCCC(c2ccc(F)cc2)c2ccc(F)cc2)CC1 [Pimozide] + Cc1nc(Nc2ncc(C(=O)Nc3c(C)cccc3Cl)s2)cc(N2CCN(CCO)CC2)n1 [Dasatinib] (partner 0.075 µM)
relative viability (NCI-H2023; first compound 0.08 µM): 0.497 | relative viability (NCI-H2023; first compound 0.253 µM): 0.547 | relative viability (NCI-H2023; first compound 0.8 µM): 0.518 | relative viability (NCI-H2023; first compound 2.53 µM): 0.438 | relative viability (NCI-H2023; first compound 8 µM): 0.451 | relative viability (201T; first compound 0.08 µM): 0.573 | relative viability (201T; first compound 0.253 µM): 0.527 | relative viability (201T; first compound 0.8 µM): 0.564 | relative viability (201T; first compound 2.53 µM): 0.516 | relative viability (201T; first compound 8 µM): 0.52 | relative viability (NCI-H650; first compound 0.08 µM): 0.501 | relative viability (NCI-H650; first compound 0.253 µM): 0.454 | relative viability (NCI-H650; first compound 0.8 µM): 0.453 | relative viability (NCI-H650; first compound 2.53 µM): 0.487 | relative viability (NCI-H650; first compound 8 µM): 0.498 | relative viability (HCC-78; first compound 0.08 µM): 0.387 | relative viability (HCC-78; first compound 0.8 µM): 0.327 | relative viability (HCC-78; first compound 2.53 µM): 0.345 | relative viability (HCC-78; first compound 8 µM): 0.373 | relative viability (HCC-15; first compound 0.08 µM): 0.651 | relative viability (HCC-15; first compound 0.253 µM): 0.577 | relative viability (HCC-15; first compound 0.8 µM): 0.551 | relative viability (HCC-15; first compound 2.53 µM): 0.565 | relative viability (HCC-15; first compound 8 µM): 0.495 | relative viability (ChaGo-K-1; first compound 0.08 µM): 0.613 | relative viability (ChaGo-K-1; first compound 0.253 µM): 0.586 | relative viability (ChaGo-K-1; first compound 0.8 µM): 0.509 | relative viability (ChaGo-K-1; first compound 2.53 µM): 0.522 | relative viability (ChaGo-K-1; first compound 8 µM): 0.595 | relative viability (NCI-H1734; first compound 0.08 µM): 0.495 | relative viability (NCI-H1734; first compound 0.253 µM): 0.454 | relative viability (NCI-H1734; first compound 2.53 µM): 0.529 | relative viability (NCI-H1734; first compound 8 µM): 0.493 | relative viability (SW 1573; first compound 0.08 µM): 0.522 | relative viability (SW 1573; first compound 0.253 µM): 0.447 | relative viability (SW 1573; first compound 0.8 µM): 0.5 | relative viability (SW 1573; first compound 2.53 µM): 0.437 | relative viability (SW 1573; first compound 8 µM): 0.692 | relative viability (NCI-H460; first compound 0.08 µM): 0.537 | relative viability (NCI-H460; first compound 0.253 µM): 0.486 | relative viability (NCI-H460; first compound 0.8 µM): 0.529 | relative viability (NCI-H460; first compound 2.53 µM): 0.483 | relative viability (NCI-H460; first compound 8 µM): 0.447 | relative viability (NCI-H1993; first compound 0.08 µM): 0.649 | relative viability (NCI-H1993; first compound 0.253 µM): 0.597 | relative viability (NCI-H1993; first compound 0.8 µM): 0.464 | relative viability (NCI-H1993; first compound 2.53 µM): 0.664 | relative viability (NCI-H1993; first compound 8 µM): 0.332 | relative viability (NCI-H441; first compound 0.08 µM): 0.86 | relative viability (NCI-H441; first compound 0.253 µM): 0.724 | relative viability (NCI-H441; first compound 0.8 µM): 0.605 | relative viability (NCI-H441; first compound 2.53 µM): 0.387 | relative viability (NCI-H441; first compound 8 µM): 0.521
